The nature of this data set: H2O solubility of the chromatographed white solid. Type of data set: physicochemical. The note with it: white solid after chromatography (2% methanol-CH2Cl2), before preparative hplc purification. The method, then: To a stirred solution of trifluoroacetic acid (10 ml), tetrahydrofuran (10 ml) and water (5 ml) at 0° C. is added, in one portion, 3.8 g (7.1 mmol) of the compound prepared in a) above. The reaction is stirred at 0° C. for 30 minutes, concentrated via rotary evaporation (bath temperature <20° C), mixed with saturated NH4HCO3 (5 mL) and stirred for 15 minutes. […] This material is further purified using preparative hplc (reverse phase eluted with 90% CH3CN-water) to give 2.9 g (82.4%) of the title compound as a white solid, m.p. 79-80° C.

The compound `CO[C@@H](C(=O)N[C@H]1CC[C@@H](OC(=O)C2CCCCC2)CNC1=O)[C@H](O)[C@@H](O)[C@H](O)/C=C/C(C)(C)C` [Example 3, (2R, 3R, 4S, 5R, 6E)-3,4,5-trihydroxy-2-methoxy-8,8-dimethyl-N-[(3S,6R) -hexahydro-2-oxo-6-(cyclohexylcorbonyl)oxy-2H-azepin-3-3-yl]non-6-enamide] had an H2O solubility of 3700 µg/mL.

Values taken from patent US6545148B2, “Process for preparing certain substituted caprolactams” (Novartis AG, priority 2001, dated 2003).
